In this experiment the target is T1, SARM1 (50-724) (Homo sapiens, UniProt Q6SZW1).
T1 construct: Purified SARM1 (50-724) with a final concentration of 2 nM was pre-incubated with a test compound
T1 sequence (Q6SZW1 50-724): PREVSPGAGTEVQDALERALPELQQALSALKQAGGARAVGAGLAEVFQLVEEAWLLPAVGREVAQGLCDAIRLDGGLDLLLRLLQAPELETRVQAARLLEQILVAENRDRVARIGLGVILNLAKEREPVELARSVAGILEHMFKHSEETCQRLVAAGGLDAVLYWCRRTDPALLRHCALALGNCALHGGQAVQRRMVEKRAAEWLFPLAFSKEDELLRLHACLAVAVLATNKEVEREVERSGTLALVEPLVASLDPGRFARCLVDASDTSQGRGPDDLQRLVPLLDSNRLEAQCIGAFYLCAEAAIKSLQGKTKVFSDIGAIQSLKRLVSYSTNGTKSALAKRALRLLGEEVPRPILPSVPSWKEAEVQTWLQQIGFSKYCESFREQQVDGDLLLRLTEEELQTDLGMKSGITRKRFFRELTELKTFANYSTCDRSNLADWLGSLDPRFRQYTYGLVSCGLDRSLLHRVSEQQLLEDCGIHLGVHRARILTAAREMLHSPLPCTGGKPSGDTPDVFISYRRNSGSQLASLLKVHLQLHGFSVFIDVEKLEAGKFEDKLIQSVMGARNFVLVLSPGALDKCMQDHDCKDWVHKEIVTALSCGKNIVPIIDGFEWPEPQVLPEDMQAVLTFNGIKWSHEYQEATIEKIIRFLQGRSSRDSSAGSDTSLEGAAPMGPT
Put plainly: SARM1 (50-724) enzymatic assay (LC-MS/MS). The class given is biochemical. As to conditions: Purified SARM1 (50-724) 2 nM, NMN as activator, NAD+ as substrate, 1 h at room temperature, read-out: IC50 (SARM1 inhibitory activity). The essentials:
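Human SARM1 (50-724), 2 nM, pre-incubated 15 min at room temperature with compound in Dulbecco's PBS. Reaction started with 200 µM NMN (activator) plus […] NAD^+ substrate, run 1 h at room temperature, quenched with 70% acetonitrile. Turnover quantified by LC-MS/MS; IC50 reported.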
What is called IC50 is the concentration needed to halve the response being measured. Take `FC(F)(F)c1ccc2[nH]c([C@H]3COC[C@@H]3c3ccccc3)nc2c1` (single isomer, unassigned) [Compound 350]: the IC50 is > 1000 nM.

With `CC(C)(O)Cc1nnc(-c2nc3cc(C(F)(F)F)ccc3[nH]2)n1-c1cccc(F)c1Cl` [Compound 388, 1-(4-(2-chloro-3-fluorophenyl)-5-(5-(trifluoromethyl)-1H-benzo[d]imidazol-2-yl)-4H-1,2,4-triazol-3-yl)-2-methylpropan-2-ol], the IC50 was ≤ 100 nM.

Take `FC(F)(F)c1ccc2[nH]c(-c3cncn3-c3cccc(Cl)c3Cl)nc2c1` [Example 45, 2-(1-(2,3-dichlorophenyl)-1H-imidazol-5-yl)-5-(trifluoromethyl)-1H-benzo[d]imidazole]: the IC50 was ≤ 100 nM.

Consider `NC(=O)Cc1nnc(-c2nc3cc(C(F)(F)F)ccc3[nH]2)n1-c1cccc(Cl)c1Cl` [Example 122, 2-[4-(2,3-Dichlorophenyl)-5-[5-(trifluoromethyl)-1H-benzimidazol-2-yl]-1,2,4-triazol-3-yl]acetamide], for which the IC50 is ≤ 100 nM.

With `C#Cc1cc(-n2cnnc2-c2nc3cc(C(F)(F)F)ccc3[nH]2)c(OC(F)(F)F)cn1` [Compound 226, 2-(4-(2-ethynyl-5-(trifluoromethoxy)pyridin-4-yl)-4H-1,2,4-triazol-3-yl)-5-(trifluoromethyl)-1H-benzo[d]imidazole], the concentration for half-maximal inhibition (IC50) is ≤ 100 nM.

For `FC(F)(F)c1ccc2[nH]c(-c3nncn3-c3cnncc3C3CC3)nc2c1` [Compound 220, 2-(4-(5-cyclopropylpyridazin-4-yl)-4H-1,2,4-triazol-3-yl)-5-(trifluoromethyl)-1H-benzo[d]imidazole], the IC50 was in the range of 100 to 500 nM.

With `N#CC1(c2cccc3[nH]c(-c4nncn4-c4cnccc4C(F)(F)F)nc23)CC1` [Compound 442, 1-(2-(4-(4-(trifluoromethyl)pyridin-3-yl)-4H-1,2,4-triazol-3-yl)-1H-benzo[d]imidazol-4-yl)cyclopropane-1-carbonitrile], the half-maximal inhibitory concentration (IC50) lay within 100 to 500 nM.

For the molecule `FC(F)(F)Oc1cccnc1-n1cnnc1-c1nc2cc(C(F)(F)F)ccc2[nH]1` [Compound 177], the IC50 is ≤ 100 nM.

In the case of `Cc1c(Cl)cncc1-n1cnnc1-c1nc2cc(C(F)(F)F)ccc2[nH]1` [Compound 58], the IC50 was ≤ 100 nM.

In the case of `Cc1ccc2[nH]c(-c3ncccc3-c3cccc(Cl)c3Cl)nc2c1` [Example 21], the IC50 was > 1000 nM.

`Cn1nc(Cl)c(Cl)c1-n1cnnc1-c1nc2cc(C(F)(F)F)ccc2[nH]1` [Example 63]: the half-inhibitory concentration (IC50) lay within 100 to 500 nM.

Regarding `CC(C)(C(N)=O)c1ccc2[nH]c(-c3nncn3-c3cccc(Cl)c3Cl)nc2c1` [Example 107], the IC50 was ≤ 100 nM.

For `FC(F)(F)c1ccc2[nH]c(-c3nncn3-c3cnccc3C(F)(F)F)c(-c3cccnc3)c2c1` [Compound 387, 3-(pyridin-3-yl)-5-(trifluoromethyl)-2-(4-(4-(trifluoromethyl)pyridin-3-yl)-4H-1,2,4-triazol-3-yl)-1H-indole], the IC50 was ≤ 100 nM.

In the case of `Cc1ccc2[nH]c(-c3n[nH]c(=O)n3C3CCCC3)nc2c1` [Compound 14], the IC50 was > 1000 nM.

Turning to `FC(F)(F)c1ccc2[nH]c(C3=C(c4ccccc4Cl)CSC3)nc2c1` [Compound 335, 2-(4-(2-chlorophenyl)-2,5-dihydrothiophen-3-yl)-5-(trifluoromethyl)-1H-benzo[d]imidazole], the IC50 was 500 to 1000 nM.

As to `Fc1cccc(-n2c(CN3CC4(CCO4)C3)nnc2-c2nc3cc(C(F)(F)F)ccc3[nH]2)c1Cl` [Compound 398, 6-((4-(2-chloro-3-fluorophenyl)-5-(6-(trifluoromethyl)-1H-benzo[d]imidazol-2-yl)-4H-1,2,4-triazol-3-yl)methyl)-1-oxa-6-azaspiro[3.3]heptane], the IC50 was ≤ 100 nM.

Regarding `FC(F)(F)c1ccc2[nH]c(-c3c[nH]nc3-c3cccc(Cl)c3Cl)nc2c1` [Example 61], the half-maximal inhibitory concentration (IC50) lay within 500 to 1000 nM.

The values are drawn from patent US20260258064A1 (SIRONAX LTD., priority 2023, published 2026).
